Laboratory results reported in patent US12440571B2, “Immune agonists” (SHENZHEN UNIVERSITY, priority 2020, dated 2025).
Read-outs that look alike come from different tables or passages of the source.

How the values were obtained:
Type in all cases: cell-based
TLR7 = molecular target: T1, TLR7 (Homo sapiens, UniProt Q9NYK1); experiment: Detection of TLR7 activation (HEK-Blue Detection), SEAP reporter; conditions: HEK-Blue hTLR7 cells, 6-16 hrs, absorbance 650 nm; read-out: TLR7(EC50/μM)
T1 construct: host or cells: HEK-Blue hTLR7 cells (HEK293-derived SEAP reporter line)
T1 sequence (Q9NYK1 27-1049): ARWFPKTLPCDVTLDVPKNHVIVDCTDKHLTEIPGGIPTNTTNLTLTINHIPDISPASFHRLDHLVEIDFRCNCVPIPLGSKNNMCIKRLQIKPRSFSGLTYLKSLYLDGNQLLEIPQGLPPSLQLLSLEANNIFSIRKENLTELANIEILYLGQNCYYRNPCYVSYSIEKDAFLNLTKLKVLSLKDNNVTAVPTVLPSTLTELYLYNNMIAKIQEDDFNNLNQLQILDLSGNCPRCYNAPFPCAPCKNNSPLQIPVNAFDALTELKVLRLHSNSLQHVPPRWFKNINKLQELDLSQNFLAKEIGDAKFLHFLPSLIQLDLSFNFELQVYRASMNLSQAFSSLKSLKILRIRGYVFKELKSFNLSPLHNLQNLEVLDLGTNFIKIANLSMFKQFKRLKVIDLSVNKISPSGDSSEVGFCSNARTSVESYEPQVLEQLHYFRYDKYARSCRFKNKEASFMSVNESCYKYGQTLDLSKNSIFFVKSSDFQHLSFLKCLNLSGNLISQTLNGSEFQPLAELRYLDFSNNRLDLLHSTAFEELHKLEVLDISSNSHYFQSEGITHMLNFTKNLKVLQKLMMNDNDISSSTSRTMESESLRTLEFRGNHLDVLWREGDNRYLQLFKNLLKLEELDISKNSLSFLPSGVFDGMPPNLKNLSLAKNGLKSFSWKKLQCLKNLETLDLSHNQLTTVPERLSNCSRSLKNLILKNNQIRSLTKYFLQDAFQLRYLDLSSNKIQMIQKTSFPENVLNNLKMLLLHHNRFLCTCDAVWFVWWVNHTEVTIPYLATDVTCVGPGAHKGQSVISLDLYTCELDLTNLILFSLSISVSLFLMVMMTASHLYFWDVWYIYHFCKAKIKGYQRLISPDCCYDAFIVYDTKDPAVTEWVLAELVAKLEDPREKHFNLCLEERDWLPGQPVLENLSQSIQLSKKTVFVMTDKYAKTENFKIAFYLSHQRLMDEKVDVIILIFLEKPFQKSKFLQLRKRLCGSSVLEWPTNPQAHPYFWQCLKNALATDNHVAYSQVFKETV
Method: HEK-Blue™hTLR7 cells (purchased from InvivoGen) in a logarithmic growth phase were taken, with a growth medium (Gibco, C11995500BT, Invivo Gen, ant-nr) discarded. The cells were gently rinsed twice by an appropriate amount of 37° C. PBS (Hyclone, SH30256.01), a rinsed PBS was discarded. Thereafter, the cells were added with 2-5 mL of 37° C. PBS, incubated for 1 to 2 minutes, and then scraped by a cell scraper and gently pipetted to be dispersed into a single cell suspension. A hemocytometer was adopted to count the cells and a cell concentration was calculated. After that, a HEK-Blue™ Detection solution (purchased from Invivo Gen) was adopted to adjust the cell concentration of the cell suspension to 2.5×10^4/180 μL per well for cell plating on a 96-well cell culture plate. The HEK-Blue™hTLR7 cells were stimulated according to the designed series of GY compound or drug concentrations (0.01 μM, 0.1 μM, 1 μM, 5 μM, 15 μM, and 30 μM), with 3 replicate wells for each concentration, and were incubated at 37° C., 5% carbon dioxide for 6-16 hrs. After the incubation, the absorbance value was read at 650 nm with a full-wavelength microplate reader (BioTek-Epoch), as listed in Table 2.
Relative induction=(average OD value of experimental group−average OD value of negative control group)/average OD value of negative control group.
Specific details for the above method may be referred to https: • //www.invivogen.com/hek-blue-htlr7; https://www.invivogen.com/sites/default/files/invivogen/products/files/hek_blue_htlr7_tds.pdf.

[1] = system: murine leukemia WEHI-3 cells; experiment: CCK8 growth inhibition, WEHI-3; conditions: Mus musculus, CCK8 method, read-out: IC50 of inhibitory activity on tumor cell growth, WEHI-3
[2] = system: human lymphoma Raji cells; experiment: CCK8 growth inhibition, Raji; conditions: CCK8 method, read-out: IC50 of inhibitory activity on tumor cell growth, Raji
[3] = system: human leukemia HL-60 cells; experiment: CCK8 growth inhibition, HL60; conditions: read-out: IC50 of inhibitory activity on tumor cell growth, HL60
[4] = system: human lymphoma Daudi B cells; experiment: CCK8 growth inhibition, Daudi B; conditions: CCK8 method, read-out: IC50 of inhibitory activity on tumor cell growth, Daudi B
[5] = system: murine spleen lymphocytes; experiment: Cytokine stimulation of murine spleen lymphocytes, ELISA; conditions: mouse immune cells (spleen lymphocytes), 24 hrs, ELISA; for EC50: Lymphocyte
Method: The stimulating effect of a series of GY compounds or drugs on murine spleen lymphocytes was detected by ELISA.
6-week-old Balb/c mice were sacrificed by cervical dislocation, spleens were taken under aseptic conditions. A 1 mL sterile syringe and a 200 mesh cell strainer were adopted to quickly grind and disperse the spleen into individual cells in 4 mL of a murine lymphocyte separation solution (Dakko's, 7211011). A resulting cell homogenate was transferred to a 15 mL centrifuge tube, then 1 mL of a RPMI 1640 medium (Hyclone, SH30809.01) was slowly added. Spleen lymphocytes were separated by a density gradient centrifugation method (800×g, 30 min), washed, red blood cells therein were lysed, such that a dispersed spleen lymphocyte suspension was obtained. Cells were counted by a hemocytometer, to calculate the cell concentration. A RPMI 1640 complete medium was adopted to adjust the cell suspension to a concentration of 1×10^6/ml/well, and the cells were then plated on a 24-well cell culture plate (Corning, 3524).
Murine spleen lymphocytes were stimulated according to the gradient concentrations of the series of GY compounds or drugs, and incubated in a 37° C., 5% carbon dioxide incubator for 24 hrs.
• (1) Coating: a Capture antibody (primary antibody, purchased from Invitrogen) was diluted with a 1×Coating Buffer (coating buffer, purchased from Invitrogen) to a recommended concentration, and 100 μL of a resulting diluted solution was added to each well of a 96-well microtiter plate, the plate was sealed with a sealing film at 4° C. overnight. • (2) Washing: a liquid in each well was discarded, then 300 μL of a PBST working solution was added to each well and kept for 1 min, thereafter, the liquid therein was discarded. The washing process was repeated 3 times. • (3) Blocking: 200 μL of a blocking solution was added to each well. The plate was sealed with a sealing film, and placed on a shaker and incubated at room temperature for 1 hr, then washed and patted to be dry. • (4) Sample incubation: a sample was collected and centrifuged to collect a supernatant. Standards, samples, negative controls, and blank controls were provided in the 96-well microtiter plate, and each concentration or sample were provided with 2 replicates. 100 μL of a standard or sample was added to each well, thereafter, the plate was sealed with a sealing film, incubated on a shaker at room temperature for 1 hr or overnight at 4° C., then washed and pated to be dry. • (5) Secondary antibody incubation: the detection antibody (secondary antibody, purchased from Invitrogen) was diluted to a recommended concentration with a dilution buffer, 100 μL of a secondary antibody was added to each well. After being sealed with a sealing film, the plate was incubated on a shaker at room temperature for 1 hr, then washed and patted to be dry. • (6) Avidin-HRP incubation: Avidin-HRP (horseradish peroxidase marker, purchased from Invitrogen) was diluted to the recommended concentration with a dilution buffer, 100 μL of Avidin-HRP was added to each well. After being sealed with a sealing film, the plate was placed on a shaker and incubated at room temperature for 30 mins, washed 5-7 times by the process of step 2), and patted to be dry. • (7) TMB color development: 100 μL of a TMB color development solution (purchased from Invitrogen) was added to each well, for carrying out reaction for 15 mins at room temperature in the dark. • (8) Stopping reaction: 50 μL of 1M H2SO4 solution was added to each well. • (9) Reading an absorbance value by a microplate reader: the OD value at 450 nm wavelength was read. A standard curve and a parameter nonlinear regression equation were drawn, and a sample concentration was calculated according to the obtained formula.

A549 = experiment: CCK8 growth inhibition, A549; conditions: Homo sapiens, CCK8 method, read-out: IC50 of inhibitory activity on tumor cell growth, A549
MB231 = experiment: CCK8 growth inhibition, MB231; conditions: CCK8 method; read-out: IC50 of inhibitory activity on tumor cell growth, MB231
[6] = system: Murine breast cancer 4T1 cells; experiment: CCK8 growth inhibition, 4T1; conditions: Mus musculus, CCK8 method, 24 hrs (or 36, 72 hrs), read-out: IC50 of inhibitory activity on tumor cell growth, 4T1
Method: Murine breast cancer 4T1 cells (Kailian Biotech, KG338) in a logarithmic growth phase were selected and washed with PBS, digested with 0.25% trypsin (including EDTA), stopped digestion with a DMEM complete medium, then centrifuged, and resuspended to form a suspension of 4T1 single cells. Cells were counted using a hemocytometer and a cell concentration was calculated. A DMEM complete medium was used to adjust the cell suspension to a target concentration, and thereafter, the cells were plated on a 96-well cell culture plate according to 4×10^3/100 μL per well. After adherering to the wall, the 4T1 cells were stimulated according to the designed concentration gradients of the series of GY compounds or drugs, with each concentration being provided with 3 replicate holes. The 96-well cell culture plate with 4T1 cells seeded and dosing was placed in the cell incubator, and incubated at 37° C., 5% carbon dioxide for 24 hrs (or 36, 72 hrs). After the incubation time was over, 10 μL of CCK8 reagent was added to each well and incubated for 1-2 hrs at 37° C. A full-wavelength microplate reader was adopted to test an OD value at 450 nm wavelength.
CCK8 calculation formula is as follows: • Cell survival rate (100%)=[…]/(Ac−Ab)×100% • As: Absorbance of wells containing cells, CCK8 solution, and drug solution • Ac: Absorbance of wells containing cells and CCK8 solution, and no drug solution • Ab: Absorbance of wells containing CCK8 solution, no cells, and no drug solution
Cell growth inhibition rate (%)=1−((OD value of experimental group−OD value of blank group)/(OD value of control group−OD value of blank group)×100%).

[7] = system: human leukemia K562 cells; experiment: CCK8 growth inhibition, K562; conditions: CCK8 method, read-out: IC50 of inhibitory activity on tumor cell growth, K562
HEK293T cells = experiment: CCK8 growth inhibition, HEK-293T; conditions: Homo sapiens, CCK8 method, read-out: IC50 of inhibitory activity on cell growth, HEK-293T
black melanoma B16 cells = experiment: CCK8 growth inhibition, B16; conditions: Mus musculus, CCK8 method, read-out: IC50 of inhibitory activity on tumor cell growth, B16
[8] = system: murine colon cancer CT-26 cells; experiment: CCK8 growth inhibition, CT26; conditions: Mus musculus, CCK8 method, read-out: IC50 of inhibitory activity on tumor cell growth, CT26
[9] = read-out: TNF-alpha EC50 of cytokine stimulating activity
[10] = Homo sapiens, HL-60, CCK8 method

Structure (SMILES)	EC50 (TLR7)	IC50 [1]	EC50 [5, 9]	IFN-gamma EC50 of cytokine stimulating activity [5]	IC50 (A549)	IC50 [3, 10]	IC50 [6]	also measured
C=C(CC(=O)NCCOCCOCCOCCn1cc(Cn2c(O)nc3c(N)nc(OCCCC)nc32)nn1)C(=O)N1CCC(C2CCNc3c(C(N)=O)c(-c4ccc(Oc5ccccc5)cc4)nn32)CC1 (single isomer, unassigned) [GY132]	5.42 µM	14.7 µM	2.15 µM	No fit				IC50 [2]: 2.03 µM; IC50 ([3]; CCK8 method): 5.13 µM; IC50 [4]: 5.36 µM; IL-6 EC50 of cytokine stimulating activity [5]: No fit
CCCCOc1nc(N)c2nc(O)n(Cc3cn(CCOCCOCCOCC(=O)Nc4cc(Nc5nccc(-c6cn(C)c7ccccc67)n5)c(OC)cc4N(C)CCN(C)C)nn3)c2n1 [GY104]			34.7 µM	No fit	17.1 µM			EC50 ([5]; read-out: IL-6 EC50 of cytokine stimulating activity): 27.7 µM
CCCCOc1nc(N)c2nc(O)n(Cc3cn(CCOCCOCCOCCN4CCN(CCCNC(=O)CC5N=C(c6ccc(Cl)cc6)c6c(sc(C)c6C)-n6c(C)nnc65)CC4)nn3)c2n1 (stereo not shown) [GY118]					16.6 µM	15.1 µM	14.7 µM	IC50 (MB231): 5.8 µM
C=C(CC(=O)NCCOCCOCCOCCn1cc(Cn2c(O)nc3c(N)nc(OCCCC)nc32)nn1)C(=O)N1CCC[C@@H](n2nc(-c3ccc(Oc4ccccc4)cc3)c3c(N)ncnc32)C1 [GY131]	4.97 µM	7.38 µM				92.1 µM	2.86 µM	IC50 [7]: 92.1 µM; IC50 (HEK293T cells): 25.1 µM; IC50 (black melanoma B16 cells): 40.7 µM; IC50 ([2]; Homo sapiens, Raji): 10.4 µM; IC50 [8]: 166 µM; IC50 ([4]; Homo sapiens, Daudi): 14.1 µM
CCCCOc1nc(N)c2nc(O)n(Cc3cn(CCOCCOCCOCC(=O)N4CCN(C/C=C/C(=O)N5CCCC(n6nc(-c7ccc(Oc8ccccc8)cc7)c7c(N)ncnc76)C5)CC4)nn3)c2n1 (stereo not shown) [GY138]		47.6 µM						
C=C(CC(=O)N1CCC(C2CCN=C3C(C(N)=O)=C(c4ccc(Oc5ccccc5)cc4)NN32)CC1)C(=O)NCCOCCOCCOCCn1cc(Cn2c(O)nc3c(N)nc(OCCCC)nc32)nn1 (stereo not shown) [GY150]		22.3 µM						
